Assay results from patent publication US20240270751A1, “Pyrazolopyridinone Compounds” (BeiGene Ltd., priority 2021, published 2024).

Tests used:
DGKα = DGKα (Homo sapiens (Human), UniProt P23743); assay: Biochemical DGK IC50 assay, DGKα ADP-Glo assay; conditions: 7.5 nM enzyme, 140 μM ATP, 80 μM DAG
Description: (§1) Enzymatic reactions of DGKζ, DGKα and DGKδ were performed using ADP-Glo assay with lipid micelle substrate. […] Full length DGKα (D21-10BG, SignalChem) and full length DGKδ (D23-10G, SignalChem) were purchased. Lipid micelle was prepared by dissolving DAG (Sigma, 317505-10MG) and PS (Sigma, P7769-100MG) with chloroform which was furtherly removed by rotary evaporation. The resulted product was resuspended in buffer containing 25 mM HEPES pH 7.0, 0.5 mM EDTA and 160 mM Octyl β-D glucopyranoside by vigorous mixing and ultrasonic (IID, Scientz).
(§2) The ranges of compounds final concentration were 1.55˜10000 nM or 23.3˜150000 nM. 3 μL 2× enzyme solution was added to wells.

DGKζ = DGKζ (Homo sapiens (Human), UniProt Q13574); assay: Biochemical DGK IC50 assay, DGKζ ADP-Glo assay; conditions: 0.5 nM enzyme, 140 μM ATP, 80 μM DAG; read-out: DGKζ ADP-Glo assay IC50
Chain of DGKζ (Q13574 other isoform, or with tags, fused parts or gaps): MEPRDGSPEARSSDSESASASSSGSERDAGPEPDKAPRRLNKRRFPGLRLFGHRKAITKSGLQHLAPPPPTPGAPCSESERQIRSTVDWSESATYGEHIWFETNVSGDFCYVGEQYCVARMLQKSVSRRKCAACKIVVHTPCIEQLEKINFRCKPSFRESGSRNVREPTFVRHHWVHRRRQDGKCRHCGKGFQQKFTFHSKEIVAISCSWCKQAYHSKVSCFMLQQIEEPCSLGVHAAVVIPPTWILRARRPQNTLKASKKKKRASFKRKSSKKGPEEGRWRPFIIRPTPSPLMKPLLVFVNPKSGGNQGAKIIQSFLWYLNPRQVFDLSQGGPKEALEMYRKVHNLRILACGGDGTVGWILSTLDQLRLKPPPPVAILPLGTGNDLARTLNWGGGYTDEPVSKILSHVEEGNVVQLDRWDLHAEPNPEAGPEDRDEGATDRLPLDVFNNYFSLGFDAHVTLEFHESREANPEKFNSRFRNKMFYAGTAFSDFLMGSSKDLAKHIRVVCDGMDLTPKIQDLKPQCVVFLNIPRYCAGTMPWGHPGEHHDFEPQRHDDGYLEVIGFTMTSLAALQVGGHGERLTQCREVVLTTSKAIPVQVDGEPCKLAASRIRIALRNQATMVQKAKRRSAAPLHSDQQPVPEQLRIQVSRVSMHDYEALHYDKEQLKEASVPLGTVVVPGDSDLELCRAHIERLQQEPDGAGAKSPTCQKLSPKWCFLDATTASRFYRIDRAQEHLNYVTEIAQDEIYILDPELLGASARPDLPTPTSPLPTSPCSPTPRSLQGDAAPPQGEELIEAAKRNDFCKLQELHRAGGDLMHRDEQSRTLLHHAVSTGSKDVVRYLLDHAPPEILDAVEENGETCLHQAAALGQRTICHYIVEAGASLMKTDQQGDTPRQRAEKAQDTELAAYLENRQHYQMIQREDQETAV
Description: as §1, §2
Human His-TEV-DGK-zeta-pFastBac1 and human baculovirus samples was generated using the Bac-to-Bac baculovirus expression system (Invitrogen) according to the manufacturer's protocol. The DNA used for expression of DGK-zeta, have SEQ ID Nos: 1. Baculovirus amplification was achieved using infected SF9 cells at 1:2000 virus/cells ratios, and grown for 96 hours at 27° C. post-transfected.
The expression scaled up for each protein was carried out in the […] from CORNING. 4 L of 3×10^6 cells/mL Sf9 cells (Expression System, Invitrogen) grown in SF900™ II SFM insect medium (Expression System) was infected with virus stock at 1:200 virus/cells ratio, and grown for 48 hours at 27° C. post-transfection. The infected cell culture was harvested by centrifugation at 6000 rpm for 15 min 4° C. in a SORVALL LYNX6000 centrifuge. The cell pellets were stored at −80° C.
Full length human DGKζ produced as described above, was purified from Sf9 baculovirus-infected insect cell paste. The cells were lysed using sonication method, and the lysates were clarified by centrifugation.

Chain of DGKα (P23743 whole entry): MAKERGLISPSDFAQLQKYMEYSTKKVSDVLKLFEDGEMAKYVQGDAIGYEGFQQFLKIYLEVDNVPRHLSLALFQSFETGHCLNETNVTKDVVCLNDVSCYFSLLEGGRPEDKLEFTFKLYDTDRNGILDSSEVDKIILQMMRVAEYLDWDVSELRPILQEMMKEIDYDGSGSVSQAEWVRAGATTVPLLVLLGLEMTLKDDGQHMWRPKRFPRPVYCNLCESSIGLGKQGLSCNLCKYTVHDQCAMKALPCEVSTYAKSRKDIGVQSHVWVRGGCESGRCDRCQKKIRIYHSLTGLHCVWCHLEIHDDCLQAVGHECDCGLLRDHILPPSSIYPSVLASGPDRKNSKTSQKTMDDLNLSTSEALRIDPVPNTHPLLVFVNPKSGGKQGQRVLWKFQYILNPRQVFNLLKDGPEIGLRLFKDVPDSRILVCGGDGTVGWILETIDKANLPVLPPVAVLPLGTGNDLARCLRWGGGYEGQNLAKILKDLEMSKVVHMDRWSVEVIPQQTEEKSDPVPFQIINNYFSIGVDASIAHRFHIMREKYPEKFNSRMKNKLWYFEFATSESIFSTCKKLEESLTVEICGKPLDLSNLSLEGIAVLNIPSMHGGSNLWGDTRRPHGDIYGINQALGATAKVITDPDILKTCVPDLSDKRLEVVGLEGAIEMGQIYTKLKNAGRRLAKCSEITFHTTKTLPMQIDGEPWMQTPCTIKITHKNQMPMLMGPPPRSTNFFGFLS

Structure (SMILES) | IC50 (DGKα) | IC50 (DGKζ)
CC[C@H]1CN(C(C)c2cnn(CC)c2C(F)(F)F)[C@H](CC)CN1c1cc(=O)n(C)c2cn(CC#N)nc12 (single isomer, unassigned) [Compound A119b] | 4.56 µM | 0.964 µM
CC[C@H]1CN(C(C)c2ccc(C(N)=O)cc2)[C@H](CC)CN1c1cc(=O)n(C)c2cn(CC#N)nc12 (single isomer, unassigned) [Compound A120a] | 0.176 µM | 2.93 µM
CC[C@H]1CN(C(C)c2ccc(C(N)=O)cc2)[C@H](CC)CN1c1cc(=O)n(C)c2cn(CC#N)nc12 (single isomer, unassigned) [Compound A120b] | 2.26 µM | > 10 µM
CC[C@H]1CN(C(C)c2cccc(CO)c2)[C@H](CC)CN1c1cc(=O)n(C)c2cn(CC#N)nc12 (single isomer, unassigned) [Compound A121a] | 1.3 µM | 3.02 µM
CC[C@H]1CN(C(C)c2ccc(C)cc2)[C@H](CC)CN1c1cc(=O)n(C)c2cn(CC#N)nc12 (single isomer, unassigned) [Compound A127a] | 0.037 µM | 0.084 µM
CC[C@H]1CN(C(C)c2ccc(C)cc2)[C@H](CC)CN1c1cc(=O)n(C)c2cn(CC#N)nc12 (single isomer, unassigned) [Compound A127b] | 0.177 µM | 3.71 µM
CC[C@H]1CN(C(C)c2ccc(F)cc2F)[C@H](CC)CN1c1cc(=O)n(C)c2cn(CC#N)nc12 (single isomer, unassigned) [Compound A132a] | 0.0089 µM | 0.0059 µM
CC[C@H]1CN(C(C)c2ccc(F)cc2F)[C@H](CC)CN1c1cc(=O)n(C)c2cn(CC#N)nc12 (single isomer, unassigned) [Compound A132b] | 0.33 µM | 1.78 µM
CC[C@H]1CN(C(C)c2ccc(C(F)(F)F)nc2)[C@H](CC)CN1c1cc(=O)n(C)c2cn(CC#N)nc12 (single isomer, unassigned) [Compound A135a] | 0.398 µM | 0.097 µM
CC[C@H]1CN(C(C)c2ccc(C(F)(F)F)nc2)[C@H](CC)CN1c1cc(=O)n(C)c2cn(CC#N)nc12 (single isomer, unassigned) [Compound A135b] | 0.428 µM | 1.3 µM
CC[C@H]1CN(C(C)c2ccc3nccnc3c2)[C@H](CC)CN1c1cc(=O)n(CC(F)F)c2cn(CC#N)nc12 (single isomer, unassigned) [Compound A139a] | > 10 µM | 0.112 µM
CC[C@H]1CN(C(C)c2ccc3nccnc3c2)[C@H](CC)CN1c1cc(=O)n(CC(F)F)c2cn(CC#N)nc12 (single isomer, unassigned) [Compound A139b] | > 10 µM | 5.74 µM
CC[C@H]1CN(C2CCc3ccccc32)[C@H](CC)CN1c1cc(=O)n(C)c2cn(CC#N)nc12 (single isomer, unassigned) [Compound A149a] | 4.12 µM | 4.16 µM
CC[C@H]1CN(C2CCc3ccccc32)[C@H](CC)CN1c1cc(=O)n(C)c2cn(CC#N)nc12 (single isomer, unassigned) [Compound A149b] | 0.191 µM | 2.25 µM
CC[C@H]1CN(C(C)c2ccc(F)cc2OC)[C@H](CC)CN1c1cc(=O)n(CCO)c2cn(CC#N)nc12 (single isomer, unassigned) [Compound A153a] | > 10 µM | 9.34 µM
CC[C@H]1CN(C(C)c2ccc(F)cc2OC)[C@H](CC)CN1c1cc(=O)n(CCO)c2cn(CC#N)nc12 (single isomer, unassigned) [Compound A153b] | > 10 µM | 0.545 µM
CC[C@H]1CN(C(C)c2cnc3ccccc3n2)[C@H](CC)CN1c1cc(=O)n(C)c2cn(CC#N)nc12 (single isomer, unassigned) [Compound A155a] | 0.728 µM | 1.38 µM
CC[C@H]1CN(C(C)c2cnc3ccccc3n2)[C@H](CC)CN1c1cc(=O)n(C)c2cn(CC#N)nc12 (single isomer, unassigned) [Compound A155b] | 0.032 µM | 0.0076 µM
CC[C@@H]1CN(c2cc(=O)n(C)c3cn(CC#N)nc23)CCN1C(C)c1ccc2nccnc2c1 (single isomer, unassigned) [Compound A161a] | > 10 µM | > 10 µM
CC[C@@H]1CN(c2cc(=O)n(C)c3cn(CC#N)nc23)CCN1C(C)c1ccc2nccnc2c1 (single isomer, unassigned) [Compound A161b] | 78.2 µM | 0.093 µM

Structure (SMILES) | IC50 (DGKα) | IC50 (DGKζ)
CC[C@@H]1CN(c2c(Cl)c(=O)n(C)c3cn(CC#N)nc23)CCN1C(C)c1ccc2nccnc2c1 (single isomer, unassigned) [Compound A162b] | > 10 µM | 1.05 µM
CC[C@H]1CN(C(C)c2ccc(F)cc2OC(F)F)[C@H](CC)CN1c1cc(=O)n(C)c2cn(CC#N)nc12 (single isomer, unassigned) [Compound A171a] | 8.34 µM | 0.065 µM
CC[C@H]1CN(C(C)c2ccc(F)cc2OC(F)F)[C@H](CC)CN1c1cc(=O)n(C)c2cn(CC#N)nc12 (single isomer, unassigned) [Compound A171b] | > 10 µM | 1.36 µM
CC[C@H]1CN(C(C)c2ccc(F)cc2C(F)F)[C@H](CC)CN1c1cc(=O)n(C)c2cn(CC#N)nc12 (single isomer, unassigned) [Compound A172b] | 20.4 µM | 0.014 µM
COC(=O)C1CN(c2cc(=O)n(C)c3cn(CC#N)nc23)CCN1[C@@H](C)c1ccc2nccnc2c1 (single isomer, unassigned) [Compound A173a] | > 10 µM | 0.502 µM
COC(=O)C1CN(c2cc(=O)n(C)c3cn(CC#N)nc23)CCN1[C@H](C)c1ccc2nccnc2c1 (single isomer, unassigned) [Compound A173b] | > 10 µM | > 10 µM
CC[C@@H]1CN(c2cc(=O)[nH]c3cn(CC#N)nc23)[C@@H](C)CN1C(C)c1ccc2nccnc2c1 (single isomer, unassigned) [Compound A177a] | 8.21 µM | 0.07 µM
CC[C@@H]1CN(c2c(Br)c(=O)n(C)c3cn(CC#N)nc23)CCN1C(C)c1ccc2nccnc2c1 (single isomer, unassigned) [Compound A179b] | > 10 µM | > 10 µM
CC[C@H]1CN(C(C)c2ccc(OC(F)F)nc2)[C@H](CC)CN1c1cc(=O)n(C)c2cn(CC#N)nc12 (single isomer, unassigned) [Compound A180a] | 0.73 µM | 0.015 µM
CC[C@@H]1CN(c2nc(=O)[nH]c3cn(CC#N)nc23)[C@@H](C)CN1C(C)c1ccc2nccnc2c1 (single isomer, unassigned) [Compound A183a] | 7.74 µM | 0.11 µM
CC[C@@H]1CN(c2nc(=O)[nH]c3cn(CC#N)nc23)[C@@H](C)CN1C(C)c1ccc2nccnc2c1 (single isomer, unassigned) [Compound A183b] | > 10 µM | 2.08 µM
CC[C@H]1CN(C(C)c2nc3cccnc3n2CC)[C@H](CC)CN1c1cc(=O)n(C)c2cn(CC#N)nc12 (single isomer, unassigned) [Compound A185a] | > 10 µM | > 10 µM
CC[C@H]1CN(C(C)c2nc3cccnc3n2CC)[C@H](CC)CN1c1cc(=O)n(C)c2cn(CC#N)nc12 (single isomer, unassigned) [Compound A185b] | 3.99 µM | 0.034 µM
CC[C@H]1CN(C(C)c2ncc(Cl)n2CC)[C@H](CC)CN1c1cc(=O)n(C)c2cn(CC#N)nc12 (single isomer, unassigned) [Compound A187a] | 5.74 µM | 5.92 µM
CC[C@H]1CN(C(C)c2ncc(Cl)n2CC)[C@H](CC)CN1c1cc(=O)n(C)c2cn(CC#N)nc12 (single isomer, unassigned) [Compound A187b] | 6.32 µM | 0.199 µM
CC[C@@H]1CN(c2c(F)c(=O)[nH]c3cn(CC#N)nc23)[C@@H](C)CN1C(C)c1ccc2nccnc2c1 (single isomer, unassigned) [Compound A194a] | 6.35 µM | 0.155 µM
CC[C@H]1CN(C(C)c2ccc(F)cc2C(F)(F)F)[C@H](CC)CN1c1cc(=O)n(C)c2cn(CC#N)nc12 (single isomer, unassigned) [Compound A196a] | > 10 µM | 1.35 µM
CC[C@H]1CN(C(C)c2ccc(F)cc2C(F)(F)F)[C@H](CC)CN1c1cc(=O)n(C)c2cn(CC#N)nc12 (single isomer, unassigned) [Compound A196b] | 93.2 µM | 0.038 µM
CC[C@H]1CN(C(C)c2ccccc2C(F)(F)F)[C@H](CC)CN1c1cc(=O)n(C)c2cn(CC#N)nc12 (single isomer, unassigned) [Compound A197a] | > 10 µM | 2.05 µM
CC[C@H]1CN(C(C)c2ccccc2C(F)(F)F)[C@H](CC)CN1c1cc(=O)n(C)c2cn(CC#N)nc12 (single isomer, unassigned) [Compound A197b] | > 10 µM | 0.169 µM
